# Reference: patent US9839618B2, “Compositions and methods relating to proliferative diseases” (The Penn State Research Foundation, priority 2010, dated 2017)
# pIC50: −log10 of the molar value.
# Key:
# [1] = tested on: cell lines established from melanocytic lesions or melanomas; assay: MTS assay, leelamine on melanocytic lesion and melanoma cell lines; assay type: cell-based; conditions: 72 hour exposure; read-out: concentration to kill 50% of cells
# Method: The efficacy of leelamine to kill other cancer types is measured and the IC50 for cell lines derived from carcinomas of breast, lung, prostate, connective tissue, pancreas and colon determined. The MTS assay as described in Sharma, A. et al., Clin Cancer Res, 2009, 15:1674-85; and Madhunapantula, S. V. et al., Mol Cancer Ther, 2008, 7:1297-308 is used to establish the IC50 at 24, 48 and 72 hours of leelamine treatment for normal human epidermal melanocytes (FOM103), normal skin fibroblast cells (FF2441), normal skin keratinocytes (HFK) and compared to melanocytic lesion cells from the radial-, vertical- and metastatic melanoma stages. […] IC50 values for each compound in μmol/L for respective cell lines are measured from three independent experiments using GraphPad Prism version 4.01 (GraphPad Software, La Jolla, Calif.). […]
# 5×10^3 cells per well in 100 μL of media are plated and grown in a 96-well plate for 48 to 72 hours and treated with either DMSO vehicle control or 0.62 to 40 μmol/L of leelamine for 24, 48 or 72 hours. IC50 values for each compound in μmol/L for respective cell lines are measured from three independent experiments using GraphPad Prism version 4.01 (GraphPad Software, La Jolla, Calif.).
# [2] = tested on: UACC 903 and 1205 Lu melanoma cells; assay: Cell cycle analysis (propidium iodide, FACScan); assay type: cell-based, human; conditions: 2 or 3 μmol/L, 24 h
# Method: Analysis of the effects of leelamine on cell cycle is performed by growing UACC 903 and 1205 Lu melanoma cells in 100-mm culture dishes followed by treatment with 2 or 3 μmol/L of leelamine for 24 h. Total floating and adherent cells are collected following trypsinization and stained using 1 mL propidium iodide solution containing 100 μg/mL propidium iodide; (Sigma, St Louis, Mo.), 20 μg/mL Ribonuclease A (Roche diagnostics, Indianapolis, Ind.) and 3 μg/mL Triton X-100 dissolved in 0.1% (W/V) sodium citrate for 30 m at 4° C. Stained cells are analyzed using the FACScan analyzer (Becton Dickinson, Franklin lakes, NJ) and data processed utilizing ModFit LT software (Verity Software House, Topsham, Me.) as described in Sharma, A. et al., Clin Cancer Res, 2009, 15:1674-85; and Madhunapantula, S. V. et al., Mol Cancer Ther, 2008, 7:1297-308.
# [3] = tested on: melanoma cell lines (UACC 903, 1205Lu); assay: MTS assay, melanoma cell lines (cell line not given); assay type: cell-based, human; conditions: UACC 903 and 1205 Lu
# Method: The mechanistic basis of leelamine's activity to inhibit melanoma cell growth is determined by examining the effect of leelamine on 1) cell viability using the MTS assay; 2) proliferation using a BrdU incorporation assay; 3) apoptosis using an assay for caspase-3/7 activity; and 4) cell cycle analysis. The MTS assay as described in Sharma, A. et al., Clin Cancer Res, 2009, 15:1674-85; and Madhunapantula, S. V. et al., Mol Cancer Ther, 2008, 7:1297-308 is used to assay cell viability. Rates of proliferation and apoptosis are measured by seeding 5×10^3 cells in 96-well plates, followed by treatment with 0.62 to 10 μmol/L of leelamine for 24 hours. Proliferating and apoptotic cells are quantified using a colorimetric cell proliferation ELISA BrdU kit (Roche diagnostics, Indianapolis, Ind.) or Apo-ONE Homogenous caspase-3/7 assay kit (Promega, Madison, Wis.), respectively, as described in Sharma, A. et al., Clin Cancer Res, 2009, 15:1674-85; and Madhunapantula, S. V. et al., Mol Cancer Ther, 2008, 7:1297-308.
# Dehydroabietylamine, its N-substituted derivatives and the corresponding dihydroabietylamine and its N-substituted derivatives are tested for their capability to inhibit cell growth of cancer cell lines, including melanoma (UACC 903, 1205Lu), breast (MCF-7), fibrosarcoma (HT-1080), colon (Caco-2), and prostate (PC-3) cancer cell lines. Viability and IC50 of normal human fibroblasts and cell lines from melanoma and other malignancies following treatment with all the agents are measured using the MTS assay (Promega, Madison, Wis.). Human fibroblast FF2441 cells, metastatic melanoma cell lines 1205 Lu and UACC 903 as well as cancer cell lines representing sarcoma (HT-1080), prostate (PC-3, LNCaP), breast (MCF-7) and lung (A-549) are maintained in DMEM (Invitrogen, Carlsbad, Calif.) supplemented with 10% FBS (Hyclone, Logan, Utah) in a 5% CO2 atmosphere, humidified 37° C. incubator. 5×10^3 cells per well in 100 μL of media are plated and grown in a 96-well plate for 48 to 72 h and treated with either DMSO vehicle control or 0.62 to 40 μmol/L for 24, 48 or 72 h. IC50 values for each compound in […] for respective cell lines are measured from three independent experiments using GraphPad Prism version 4.01 (GraphPad Software, La Jolla, Calif.). FIG. 52 is a graph showing IC50 values for leelamine and compounds 4a, 4b and 5a in treated fibroblasts (FF2441) compared to melanoma cells. Selectivity ratio here is defined as ratio of activity against fibroblasts compared to activity against melanoma cells. Leelamine is relatively selective with a ratio of >6 and >4 for UACC903 and 1205Lu melanoma cells. The selectivity ratio of compound 4a is ˜4 and ˜3 for UACC903 and 1205Lu and for compound 4b is ˜4 for both cell lines. The selectivity ratio of compound 5a is ˜4 for UACC903 and >2 for 1205Lu cells.
Structure (SMILES),pIC50 [1],cell cycle distribution [2],"anti-cancer activity / viability of melanoma cell lines, in words [3]"
"CC(C)c1ccc2c(c1)CCC1[C@](C)(CN)CCC[C@]21C (stereo partly drawn) [Leelamine, [(1R,4aS)-1,4a-dimethyl-7-(propan-2-yl)-1,2,3,4,4a,9,10,10a-octahydrophenanthren-1-yl]methanamine]",5.52 to 6.00,"increased percentage of sub-G0-G1 and G0/G1 cell populations, with a corresponding decrease in S-phase population",effectively inhibits the viability
"CC(C)C1=CC2=CCC3[C@](C)(CCC[C@@]3(C)C(=O)O)C2CC1 (stereo partly drawn) [Abietic acid, (1R,4aR)-1,4a-dimethyl-7-(propan-2-yl)-1,2,3,4,4a,4b,5,6,10,10a-decahydrophenanthrene-1-carboxylic acid, reference compound]",,,no anti-cancer activity
